Where two headings read alike, the source gives them in different places.
How the values were obtained:
KRasG12C [1] = biological target: T1, KRasG12C (Homo sapiens, UniProt P01116, G12C); experiment: KRasG12C functional assay (HTRF, SOS-mediated nucleotide exchange / Raf RBD binding); type: biochemical; settings: 4 hrs incubation with GDP loaded biotinylated KRasG12C, single experiment or average of two or more
T1 construct: biotin (biotinylated); made in house
Method: KRasG12C Functional Assay
All enzyme and substrate solutions were prepared in assay buffer containing 20 mM HEPES (pH 7.5), 5 mM MgCl2, 150 mM NaCl, and 0.01% Tween 20. […] In a separate mix 20 nM GST-Raf Ras binding domain (GST-Raf RBD, purified in house) and 4 μg/ml anti-GST XL665 antibody (Cisbio) was prepared in assay buffer containing 50 mM Potassium Fluoride and 0.05 mg/ml BSA and equilibrated for 4 hours before adding 0.6 μM Guanosine 5′-[γ-thio]triphosphate (GTPγS, Sigma) and 0.08 μM SOS (purified in house). 5 μl of the GST-RAF RBD mix was then dispensed into each well of the assay plate. […] This is detected simultaneously via the specific binding interaction between active GTPγS KRas^G12C with GST-Raf RBD which brings the europium and XL665 into close proximity enabling an increased FRET signal to be detected on a Pherastar (BMG) plate reader equipped with the HTRF filter module. […] IC50 values were calculated from normalised dose-response response FRET data curve fitted in Genedata screener (Basel, Switzerland).

[2] = In vivo pharmacokinetics in rat (oral bioavailability, clearance)
KRasG12C [3] = biological target: T1, KRasG12C; experiment: KRasG12C mass spectrometry adducting assay; type: binding; settings: 10 μM test compound, 4 μM GDP loaded KRasG12C, 4 hours
Method: KRasG12C Mass Spectrometry Adducting Assay
Enzyme solutions were prepared in assay buffer containing 20 mM HEPES (pH 7.5), 5 mM MgCl2, and 150 mM NaCl. […] The plate was sealed before reading on a Xevo G2 QTOF (Waters) and Acquity LC system (Waters). 10 μl of sample was injected onto a Xbridge BEH300; C4; 3.5 um; 2.1×50 mm column (Waters) running a 3 minute gradient. Blank samples were run in between each test sample.
Data was analysed in Mass Lynx software (Waters), the Total ion count (TIC) trace was used and the eluted protein peak data combined. Using the combined spectrum the data was deconvoluted using MaxEnt1 method. The peak area for apo-protein KRas^G12C (APO) and KRAS+relative cmpd mass (adduct) were measured, and a percentage adduct was calculated using the following calculation: Percent adduct=100*(area of adduct peak/(sum of APO+adduct peaks)

[4] = Caco AB cell permeability; type: in vitro ADME; settings: human, Caco-2; A to B
Half life in rat blood = type: in vitro ADME
[5] = read-out: KRasG12C functional assay IC50 value

T1 sequence (P01116 1-188 isoform P01116-2 G12C): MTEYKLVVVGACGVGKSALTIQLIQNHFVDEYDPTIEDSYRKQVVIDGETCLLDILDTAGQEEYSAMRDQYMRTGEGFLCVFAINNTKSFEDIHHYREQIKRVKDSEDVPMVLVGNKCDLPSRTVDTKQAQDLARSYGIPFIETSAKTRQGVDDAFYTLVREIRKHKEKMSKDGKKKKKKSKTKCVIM

Compound `C=CC(=O)N1C[C@H]2COc3c(Cl)c(-c4c(O)cccc4F)c(F)c4ncnc(c34)N2C[C@H]1C` (single isomer, unassigned) [Example 4] has an IC50 (KRasG12C [1]; [5]) of 50 nM, an oral bioavailability [2] of 31% and a clearance ([2]; in vivo) of 29 mL/min/kg. For the same compound, the “KRasG12C M. S. Binding Mean adduct %” value (KRasG12C [3]) was 96% and the Papp A→B [4] was 58 ×10⁻⁶ cm/s.

`C=CC(=O)N1CCN2c3ncnc4c(F)c(-c5c(O)cccc5F)c(Cl)c(c34)OC[C@@H]2C1` [R^5 desmethyl compound, 1-((8aS)-6-chloro-4-fluoro-5-(2-fluoro-6-hydroxyphenyl)-8a,9,11,12-tetrahydropyrazino[2′,1′:3,4] [1,4]oxazepino[5,6,7-de]quinazolin-10(8H)-yl)prop-2-en-1-one, reference compound] gave a clearance ([2]; in vivo) of 962 mL/min/kg, a bioavailability ([2]; in vivo, po) of 0% and a Papp A→B [4] of 5.8 ×10⁻⁶ cm/s. The half-life (Half life in rat blood) was 12 min.

With `C=CC(=O)N1C[C@@H]2CCOc3c(Cl)c(-c4c(O)cccc4F)c(F)c4ncnc(c34)N2C[C@H]1C` (single isomer, unassigned) [Example 39] the IC50 (KRasG12C [1]; KRasG12C functional assay IC50 value) was 3 nM, the “clearance (Cl)” value [2] was 22 mL/min/kg and the oral bioavailability [2] was 75%. For the same compound, the Papp A→B [4] was 72 ×10⁻⁶ cm/s.

In the case of `C=CC(=O)N1CCN2c3ncnc4c(F)c(-c5c(C)ccc6c5C(=O)NC6)c(Cl)c(c34)OC[C@@H]2C1` (single isomer, unassigned) [Example 1], the IC50 (KRasG12C [1]; [5]) is reported as 19 nM and the “KRasG12C M. S. Binding Mean adduct %” value (KRasG12C [3]) is reported as 98%.

With `C=CC(=O)N1C[C@H]2COc3c(Cl)c(-c4c(O)cccc4F)c(F)c4ncnc(c34)N2C[C@H]1C` (single isomer, unassigned) [Example 5] the IC50 (KRasG12C [1]; [5]) was 6350 nM and the “KRasG12C M. S. Binding Mean adduct %” value (KRasG12C [3]) was 14%.

In the case of `C=CC(=O)N1CCN2c3ncnc4c(F)c(-c5c(F)ccc6[nH]ncc56)c(Cl)c(c34)OC[C@@H]2C1` (single isomer, unassigned) [Example 22], the IC50 (KRasG12C [1]; [5]) is reported as 30 nM and the “KRasG12C M. S. Binding Mean adduct %” value (KRasG12C [3]) is reported as 95%.

With `C=CC(=O)N1CCN2c3ncnc4c(F)c(-c5c(F)ccc6[nH]cnc56)c(Cl)c(c34)OC[C@@H]2C1` (single isomer, unassigned) [Example 20] the IC50 (KRasG12C [1]; [5]) was 29 nM and the “KRasG12C M. S. Binding Mean adduct %” value (KRasG12C [3]) was 100%.

For `C=CC(=O)N1C[C@H]2COc3c(Cl)c(-c4c(O)cccc4F)c(F)c4ncnc(c34)N2C[C@@H]1C` [Example 3, 1-[(8aS,11S)-6-Chloro-4-fluoro-5-(2-fluoro-6-hydroxyphenyl)-11-methyl-8a,9,11,12-tetrahydropyrazino[2′,1′:3,4][1,4]oxazepino[5,6,7-de]quinazolin-10(8H)-yl]prop-2-en-1-one], the IC50 (KRasG12C [1]; [5]) was 113 nM and the “KRasG12C M. S. Binding Mean adduct %” value (KRasG12C [3]) was 54%.

With `C=CC(=O)N1CCN2c3ncnc4c(F)c(-c5c(C)ccc6[nH]cnc56)c(Cl)c(c34)OC[C@@H]2C1` (single isomer, unassigned) [Example 8] the IC50 (KRasG12C [1]; [5]) was 12 nM and the “KRasG12C M. S. Binding Mean adduct %” value (KRasG12C [3]) was 96%.

With `C=CC(=O)N1CCN2c3ncnc4c(F)c(-c5c(F)ccc6c5ncn6C)c(Cl)c(c34)OC[C@@H]2C1` (single isomer, unassigned) [Example 24] the IC50 (KRasG12C [1]; [5]) was 97 nM and the “KRasG12C M. S. Binding Mean adduct %” value (KRasG12C [3]) was 99%.

With `C=CC(=O)N1CCN2c3ncnc4c(F)c(-c5c(F)ccc6[nH]nnc56)c(Cl)c(c34)OC[C@@H]2C1` (single isomer, unassigned) [Example 26] the IC50 (KRasG12C [1]; [5]) was 51 nM and the “KRasG12C M. S. Binding Mean adduct %” value (KRasG12C [3]) was 100%.

For `C=CC(=O)N1CCN2c3ncnc4c(F)c(-c5n[nH]c6ccccc56)c(Cl)c(c34)OC[C@@H]2C1` [Example 11, 1-[(8aS)-6-Chloro-4-fluoro-5-(1H-indazol-3-yl)-8a,9,11,12-tetrahydropyrazino[2′,1′:3,4][1,4]oxazepino[5,6,7-de]quinazolin-10(8H)-yl]prop-2-en-1-one], the IC50 (KRasG12C [1]; [5]) was 201 nM and the “KRasG12C M. S. Binding Mean adduct %” value (KRasG12C [3]) was 96%.

With `CN(C)C/C=C/C(=O)N1CCN2c3ncnc4c(F)c(-c5c(O)cccc5F)c(Cl)c(c34)OC[C@@H]2C1` (single isomer, unassigned) [Example 14] the IC50 (KRasG12C [1]; [5]) was 59 nM and the “KRasG12C M. S. Binding Mean adduct %” value (KRasG12C [3]) was 94%.

With `Cc1ccc2[nH]ncc2c1-c1c(Cl)c2c3c(ncnc3c1F)N1CCN(C(=O)/C=C/CN(C)C)C[C@H]1CO2` (single isomer, unassigned) [Example 30] the IC50 (KRasG12C [1]; [5]) was 170 nM and the “KRasG12C M. S. Binding Mean adduct %” value (KRasG12C [3]) was 94%.

In the case of `C=CC(=O)N1CCN2c3ncnc4c(F)c(-c5c(C)cccc5O)c(Cl)c(c34)OC[C@@H]2C1` (single isomer, unassigned) [Example 12], the IC50 (KRasG12C [1]; [5]) is reported as 31 nM and the “KRasG12C M. S. Binding Mean adduct %” value (KRasG12C [3]) is reported as 95%.

In the case of `C=CC(=O)N1CCN2c3ncnc4c(F)c(-c5c(C)ccc6cc[nH]c(=O)c56)c(Cl)c(c34)OC[C@@H]2C1` (single isomer, unassigned) [Example 17], the IC50 (KRasG12C [1]; [5]) is reported as 373 nM and the “KRasG12C M. S. Binding Mean adduct %” value (KRasG12C [3]) is reported as 30%.
